Source: EP3250181B1, “MINOXIDIL-BASED PHARMACEUTICAL FORMULATION FOR THE TOPICAL USE AND KIT THEREOF” (Farmalabor S.r.l., priority 2014, dated 2016)

Experiments:
[1] = Stability, first study: real storage conditions, HPLC; conditions: formulation A, room temperature, both in the presence and in the absence of light
[2] = Stability, second study: cold-warm cycle in climate room for 60 hours; conditions: formulation A, 4°C/25°C/40°C cycle, dark or UV/Vis light

stability of Minoxidil in the gel [1]: stable in the gel for 5 weeks
Compound: Nc1cc(N2CCCCC2)nc(N)[n+]1[O-] [Minoxidil]
chemical stability after cold-heat shock [2]: chemical stability of Minoxidil into the gel also after a cold-heat shock
